Where a SMILES comes first, the peptide text is derived from it. Where no end group is shown, it is not given here. K(Rhod) = not defined here
Tests used:
[1] = system: HIV-1RF; assay: Anti-HIV-1 cytoprotection assay, CEM-SS cells infected with HIV-1 strain RF; format: cell-based; details: cytoprotection assay, CEM-SS cells infected with HIV-1RF; read-out: EC50 in anti-HIV-1 assay
[2] = target: CXCR4 (Homo sapiens, UniProt P61073); assay: Inhibition of SDF-1α-induced intracellular calcium release (Fura-2/AM, HeLa and U87 cells expressing CXCR4); format: cell-based; details: for Concentration, required for complete inhibition of [Ca ^2+ i] release: Table 1, SDF-1α-induced intracellular calcium release; for Concentration, required for complete inhibition of [Ca^2+ I] release: Table 3, peptides from second transmembrane domain of CXCR4
Description: The effect of the peptides on CXCR4-mediated calcium fluxes in HeLa cells that naturally express the CXCR4 receptor and U87 cells stably expressing the CXCR4 receptor was tested as follows. Cells grown on Nunc cover glass chamber slides were incubated with 1 micromolar Fura-2/AM for 20 min in a CO2-incubator, rinsed with PBS and mounted on the stage of a Zeiss Axiovert inverted microscope. [Ca^2+]i measurements were performed using an Attofluor digital imaging system (Atto Instruments, Rockville, MD). Fluorescence of Fura was excited at alternating wavelength of 340 and 380 nm. Fluorescence was monitored by an intensified CCD camera using a 505 cut-off filter. Calibrations of [Ca^2+]i signals were performed using Ca^2+ standards containing 1 micromolar Fura. CXCR4 antagonists were tested on HeLa cells and U87 cells. Stromal cell-derived factor-1α (SDF-1α) was used as a specific CXCR4 agonist.
CCR5 antagonists, which were used in selectivity studies as described below, were tested on HEK (human kidney […]) cells stably expressing the CCR5 receptor and RANTES was used as an agonist. The antagonist activity of the peptides was evaluated by measuring the inhibition of agonist-evoked intracellular Ca^2+i release. These measurements were carried out in Fura-2/AM-treated cells, utilizing an Attofluor digital imaging system as described above. The agonist was SDF-1α.
Further optimization and structure-activity studies allowed to obtain antagonists derived from all but the third and fifth transmembrane domains (Table 2). Table 1. Activity of synthetic peptides corresponding to predicted transmembrane domains of CXCR4 in inhibition of SDF-1α-induced intracellular calcium release.
Table 2. Biological activity of CXCR4 antagonists derived from different transmembrane domains. Anti signaling activity was determined in inhibition of SDF-1α-induced intracellular calcium release. Anti-HIV-1 activity was assessed in cytoprotection assay utilizing CEM-SS cells infected with HIV-1RF.

Chain of CXCR4 (P61073 whole entry, the tested form may be a part): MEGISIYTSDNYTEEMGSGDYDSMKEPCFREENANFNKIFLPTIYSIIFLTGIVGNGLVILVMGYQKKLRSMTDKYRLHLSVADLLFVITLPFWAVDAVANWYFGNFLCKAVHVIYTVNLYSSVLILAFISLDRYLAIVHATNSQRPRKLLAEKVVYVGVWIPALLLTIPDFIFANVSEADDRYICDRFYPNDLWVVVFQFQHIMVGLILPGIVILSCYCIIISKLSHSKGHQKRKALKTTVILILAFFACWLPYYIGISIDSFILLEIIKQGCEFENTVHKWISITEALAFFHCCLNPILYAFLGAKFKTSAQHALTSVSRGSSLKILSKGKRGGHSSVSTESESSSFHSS

CC[C@H](C)[C@H](NC(=O)CNC(=O)[C@@H](NC(=O)[C@H](Cc1ccc(O)cc1)NC(=O)[C@H](Cc1ccc(O)cc1)NC(=O)[C@@H]1CCCN1C(=O)[C@H](CC(C)C)NC(=O)[C@H](Cc1c[nH]c2ccccc12)NC(=O)[C@H](CS)NC(=O)[C@H](C)NC(=O)[C@H](Cc1ccccc1)NC(=O)[C@H](Cc1ccccc1)NC(=O)[C@H](C)NC(=O)[C@H](CC(C)C)NC(=O)[C@@H](NC(=O)[C@H](CC(C)C)NC(=O)[C@@H](NC(=O)[C@@H](N)C(C)C)[C@@H](C)CC)[C@@H](C)CC)[C@@H](C)CC)C(=O)N[C@@H](CO)C(=O)N[C@H](C(=O)N[C@@H](CC(=O)O)C(=O)O)[C@@H](C)CC [Peptide F-6-1] (H-VILILAFFACWLPYYIGISID-OH)
EC50 [1]: > 50000 nM

CC[C@H](C)[C@H](NC(=O)[C@@H](NC(=O)[C@H](Cc1ccccc1)NC(=O)[C@H](CC(C)C)NC(=O)[C@@H](N)CC(C)C)C(C)C)C(=O)N[C@H](C(=O)N[C@@H](CC(C)C)C(=O)N1CCC[C@H]1C(=O)N[C@@H](Cc1ccccc1)C(=O)N[C@@H](Cc1c[nH]c2ccccc12)C(=O)N[C@@H](C)C(=O)N[C@H](C(=O)N[C@@H](CC(=O)O)C(=O)N[C@@H](C)C(=O)N[C@H](C(=O)N[C@@H](C)C(=O)N[C@@H](CC(N)=O)C(=O)N[C@@H](Cc1c[nH]c2ccccc12)C(=O)N[C@@H](Cc1ccc(O)cc1)C(=O)N[C@@H](Cc1ccccc1)C(=O)NCC(=O)N[C@@H](CC(N)=O)C(=O)N[C@@H](CC(=O)O)C(=O)N[C@@H](CC(=O)O)C(=O)O)C(C)C)C(C)C)[C@@H](C)O [Peptide F-2-2] (H-LLFVITLPFWAVDAVANWYFGNDD-OH)
EC50 [1]: 2270 nM

HIMVGLILPGIVILSCYCIII-NH2 (cysteine pairing not given here) [Peptide F-5-1]
Concentration, required for complete inhibition of [Ca ^2+ i] release [2]: >50 µM

ACLLFVITLPFWAVDAVANWYFG NDDK(Rhod) D-OH (ACLLFVITLPFWAVDAVANWYFGNDD-{K(Rhod)-Asp-OH}; reading uncertain; also: printed as ACLLFVITLPFWAVDAVANWYFG NDDK(Rhod) D-OH) [Rhod - F-2]
Concentration, required for complete inhibition of [Ca^2+ I] release [2]: 8 µM

ALAFFHCCLNPILYAFLGAK-NH2 (cysteine pairing not given here) [Peptide F-7-1]
Concentration, required for complete inhibition of [Ca ^2+ i] release [2]: > 100 µM

CC[C@H](C)[C@H](NC(=O)[C@@H](NC(=O)[C@H](Cc1ccccc1)NC(=O)[C@H](CC(C)C)NC(=O)[C@H](CC(C)C)NC(C)=O)C(C)C)C(=O)N[C@H](C(=O)N[C@@H](CC(C)C)C(=O)N1CCC[C@H]1C(=O)N[C@@H](Cc1ccccc1)C(=O)N[C@@H](Cc1c[nH]c2ccccc12)C(=O)N[C@@H](C)C(=O)N[C@H](C(=O)N[C@@H](CC(=O)O)C(=O)N[C@@H](C)C(=O)N[C@H](C(=O)N[C@@H](C)C(=O)N[C@@H](CC(N)=O)C(=O)N[C@@H](CC(=O)O)C(=O)N[C@@H](CC(=O)O)C(=O)O)C(C)C)C(C)C)[C@@H](C)O [AcF-2-5]
Concentration, required for complete inhibition of [Ca^2+ I] release [2]: 10 µM

CC[C@H](C)[C@H](NC(=O)[C@H](Cc1ccccc1)NC(=O)[C@H](CC(=O)O)NC(=O)[C@@H]1CCCN1C(=O)[C@@H](NC(=O)[C@@H](NC(=O)[C@H](CC(C)C)NC(=O)[C@H](CC(C)C)NC(=O)[C@H](CC(C)C)NC(=O)[C@H](C)NC(=O)[C@@H]1CCCN1C(=O)[C@@H](NC(=O)[C@H](Cc1c[nH]c2ccccc12)NC(=O)[C@@H](NC(=O)CNC(=O)[C@@H](NC(=O)[C@H](Cc1ccc(O)cc1)NC(=O)[C@@H](N)C(C)C)C(C)C)C(C)C)[C@@H](C)CC)[C@@H](C)O)[C@@H](C)CC)C(=O)N[C@@H](Cc1ccccc1)C(=O)N[C@@H](C)C(=O)N[C@@H](CC(N)=O)C(=O)N[C@@H](CC(=O)O)C(=O)N[C@@H](CC(=O)O)C(=O)O [Peptide F-4-2] (H-VYVGVWIPALLLTIPDFIFANDD-OH)
EC50 [1]: 300 nM
